{"source": "patent US10960037B2", "about": "“Method of treating neurological conditions with extract of Nerium species or Thevetia species” (PHOENIX BIOTECHNOLOGY, INC., priority 2010, dated 2021)", "key": {"[1]": {"system": "cortical and striatal neurons transfected with mutant htt", "assay": "Cortico-striatal co-culture \"Huntington's disease\" assay", "assay_type": "cell-based", "source_text": "Example 10 provides a detailed description of an assay used to evaluate the efficacy of the extract (or fraction thereof) for the treatment of Huntington's disease. Mutant htt protein is introduced via electroporation into high-density, mixed co-cultures of cortical neurons, striatal neurons, and glia. The striatal and cortical neurons are transfected with different color fluorescent proteins thereby facilitating the separate identification of the different types of neurons in the co-culture. The color fluorescent proteins are fluorescent and ‘emit’ color upon activation with a light source of appropriate wavelength. […] Such other agents can be used along with or in the absence of oleandrin or other cardiac glycoside.\nIn this assay, instead of using intact brain slices, mutant htt is introduced via electroporation into high-density, mixed co-cultures of cortical neurons, striatal neurons, and glia arrayed in 96-well plates. […] In this assay, over the course of 1-2 weeks in vitro, transfected mutant htt constructs induce the progressive degeneration of both striatal and cortical neurons that are subsequently quantified using automated image acquisition and object detection algorithms on the Cellomics Arrayscan VTI platform. […] In a full run, some 25,000 images are collected and analyzed in each cycle, 4 cycles per week. […]"}, "[2]": {"system": "cortical pyramidal neurons in APP-transfected brain slices", "assay": "Brain slice APP/Aβ-induced degeneration \"Alzheimer's\" assay", "assay_type": "cell-based, rat", "details": "result in words", "source_text": "Example 9 provides a detailed description of an in vitro assay used to evaluate the efficacy of the extract for the treatment of Alzheimer's disease. The assay is a brain slice-based assay for APP/Aβ-induced (APP: amyloid precursor protein) degeneration of cortical pyramidal neurons. Upon cleavage by a secretase enzyme, the APP is reduced to Aβ peptides which are believed to be a causative factor in beta-amyloid plaque formation. Aβ proteins are associated with beta-amyloid plaque formation and are believed to be a hallmark if not etiologic factor in Alzheimer's disease. […]\nThe APP-WT brain slice-based Alzheimer's assay was repeated (Example 11) using fractions of the SCF extract of Nerium oleander. The number of healthy cortical neurons was determined following APP/Aβ-induced degeneration in the presence of varying amounts of fraction 0-4A of the SCF extract (0.01 to 100 μg/ml). […]\n(§1) For all brain slice assays, numbers of healthy pyramidal neurons in the cortical regions of each brain slice were imaged on a Leica MZIIIFL fluorescence stereomicroscope. Cortical pyramidal neurons were readily identified by their characteristic positions and orientations in the cortical plate, and by their prominent extension of a single, apical dendrite radially towards the pial surface. […]"}, "[3]": {"system": "healthy cortical pyramidal neurons in brain slices subjected to OGD", "assay": "Brain slice-based oxygen-glucose deprivation (OGD) \"stroke\" neuroprotection assay", "assay_type": "cell-based, Sprague-Dawley rat", "details": "result in words", "description": "Example 8 provides a detailed description of an in vitro assay used to evaluate the efficacy of the extract, or fraction thereof, or composition thereof, for the treatment of stroke-mediated ischemic neuronal injury. The assay is a brain slice-based assay for oxygen and glucose deprivation (OGD) used to induce 50% loss of healthy cortical neurons by 24 hours. The parent unfractionated SCF extract of Nerium species, e.g. Nerium oleander, is used as a positive control. The parent extract is then fractionated according to Example 13 to provide a fraction of extract of Nerium species. The fractions are analyzed according to Examples 6, 14 and 17.\nNeocortical brain slices were prepared from PND 7 Sprague-Dawley rat pups. The cerebral cortex was dissected, cut into 400-μ-thick slices and transferred into a container containing cold artificial cerebrospinal fluid with 1 μM MK-801 before plating; MK-801 was not included in any subsequent procedures. To mimic ischemic injury using transient oxygen-glucose deprivation (OGD), slices from one hemisphere of each brain were exposed to glucose-free, N2-bubbled artificial cerebrospinal fluid for 7.5 min in a low 02 (0.5%) environment. The OGD slices were then plated side-by-side with control slices from the contralateral hemisphere on nitrocellulose or Millicell (Millipore) permeable membranes, which were prepared identically except for no OGD. Thirty minutes after plating, the brain slice pairs were transfected, transferred to 24-well plates, and incubated at 37° C. under 5% CO2 in humidified chambers. In each experiment, 5-6 minutes of oxygen-glucose deprivation (OGD) was used to induce >50% loss of healthy cortical neurons by 24 hrs. A set concentration (3 μM) of neriifolin (a cardiac glycoside) was used as the internal positive control. […] A neuroprotective composition can be used as described herein for oleandrin.\nCoronal brain slices (250 μm thick) were prepared from postnatal day 10 Sprague-Dawley rat pups of either gender (Charles River) and established in organotypic culture. Animals were sacrificed in accordance with NIH guidelines and under Duke IACUC approval and oversight. […]\nas §1"}, "[4]": {"system": "ARE target genes Gclm, Nqo1, Srx, Hmox1", "assay": "ARE target gene expression by qPCR, rat co-cultures", "assay_type": "cell-based", "details": "for expression of ARE target genes: 6 h", "description": "FIG. 17 depicts the results of expression assays for Fraction 0-4 and the individual triterpenes oleanolic acid, ursolic acid, betulinic acid and uvaol. “X” symbols denote concentrations of compounds which induced toxicity and for which recovery of residual mRNA was insufficient to support qPCR analysis. Rat primary corticostriatal co-cultures were treated for 6 h with Fraction 0-4 (in μg/ml) or oleanolic acid, ursolic acid, betulinic acid, or uvalol (all in μM) at the concentrations indicated, then harvested and processed for qPCR analysis of the ARE target genes shown. Quantitative RNA values were normalized to the GAPDH reference control and fold-expression changes are expressed relative to the DMSO-carrier only condition (“--”) set to a value of 1. Dark bars denote statistically significant differences with respect to the DMSO-carrier only control by a Student's t-test at p<0.05.\nFIG. 18 depicts the results of expression assays for Fraction 0-4 and the individual triterpenes ursolic acid and betulinic acid at more similar concentration ranges. Rat primary corticostriatal co-cultures were treated for 6 h with Fraction 0-4 (in μg/ml) or ursolic acid and betulinic acid (in μM) at the concentrations indicated, then harvested and processed for qPCR analysis of the ARE target genes shown. Quantitative RNA values were normalized to the GAPDH reference control and fold-expression changes are expressed relative to the DMSO-carrier only condition (“--”) set to a value of 1. Dark blue bars denote statistically significant differences with respect to the DMSO-carrier only control by a Student's t-test at p<0.05.\nFor qPCR quantification of ARE target gene expression levels, cortical and striatal neurons were plated onto 96-well plates containing mature glial cultures and cultured for 96 h. Fraction 0-4 was added to cultures at the indicated concentrations for 6 h. At the end of the treatment period, cells were lysed and total RNA was isolated using Absolutely RNA mini-prep kits (Agilent Technologies/Stratagene). cDNA was generated using oligo dT primers and Superscript II reverse transcriptase (Invitrogen). Resulting cDNA was used for quantitative PCR of gene transcripts using SYBR Green Real-Time PCR Master Mix (Life Technologies) and the following mouse primers, for: Gclc (forward-5′ […]-3′ and reverse-5′-[…]-3′), Nqo1 (forward-5′-GCCCGCATGCAGATCCT-3′ and reverse 5′-[…]3′), Srx (forward-5′-[…]-3′ and reverse-5′-[…]-3′), and Hmox1 (forward-5′-[…]-3′ and reverse-5′-[…]-3′) (Integrated DNA Technologies). […] Each biological sample was measured in triplicate on a ViiA 7 real-time PCR instrument (Applied Biosystems); fold expression was calculated after normalization to corresponding control GAPDH levels."}, "[5]": {"system": "cortical neurons in \"non-OGD\" brain slices", "assay": "Non-stroke (non-OGD) brain slice assay", "assay_type": "cell-based, Sprague-Dawley rat", "details": "sliced and YFP-transfected, no OGD", "description": "Neuroprotective composition, oleandrin, PBI-05204 (an unfractionated SCF extract of Nerium oleander) or a fraction of the extract (PBI-04711) were tested on “nonstroked” brain slices; that is, ones that were sliced and transfected with YFP but not subjected to additional trauma via OGD. See experimental procedure outlined above."}}, "note": "Entries after “also recorded” stand apart in the source; their conditions may differ."}
{"compound": "CO[C@H]1C[C@H](O[C@H]2CC[C@@]3(C)[C@H](CC[C@@H]4[C@@H]3CC[C@]3(C)[C@@H](C5=CC(=O)OC5)[C@@H](OC(C)=O)C[C@]43O)C2)O[C@@H](C)[C@@H]1O", "note": "[Oleandrin, oleandrin]", "values": [{"measurement": "potency relative to KW6002", "setting": "[1]; FIGS. 3A-3D", "value": "~100", "unit": "fold"}, {"measurement": "efficacy (surviving neurons) in cortico-striatal co-culture assay", "setting": "[1]; result in words", "value": "more effective than KW6002; also recorded: strongest hits; also recorded: on par with KW6002"}, {"measurement": "neuroprotection in APP brain slice assay", "setting": "[2]", "value": "concentration-dependent neuroprotection"}]}
{"compound": "CC1(C)CC[C@]2(C(=O)O)CC[C@]3(C)C(=CC[C@@H]4[C@@]5(C)CC[C@H](O)C(C)(C)[C@@H]5CC[C@]43C)[C@@H]2C1", "note": "[Oleanolic acid, oleanolic acid]", "values": [{"measurement": "cellular toxicity", "setting": "[3]", "value": "not exhibited observable cellular toxicity"}, {"measurement": "neuroprotection in brain slice OGD assay", "setting": "[3]", "value": "robust neuroprotection"}, {"measurement": "neuroprotection in brain slice OGD assay", "setting": "[3]; listed as OA", "value": "accounts for a majority of the neuroprotective activity; also recorded: substantially higher activity than UA"}, {"measurement": "expression of ARE target genes", "setting": "[4]", "value": "robust upregulation of canonical ARE target genes"}]}
{"compound": "C[C@H]1[C@H](C)CC[C@]2(C(=O)O)CC[C@]3(C)C(=CC[C@@H]4[C@@]5(C)CC[C@H](O)C(C)(C)[C@@H]5CC[C@]43C)[C@H]12", "note": "[Ursolic acid, ursolic acid]", "values": [{"measurement": "neuroprotection in brain slice OGD assay", "setting": "[3]; listed as UA", "value": "lower activity; also recorded: rise and fall in activity as concentration is increased"}, {"measurement": "expression of ARE target genes", "setting": "[4]", "value": "robust upregulation of canonical ARE target genes; also recorded: clear upregulation of Srx and Hmox1"}, {"measurement": "expression of ARE target genes", "setting": "[4]; listed as UA", "value": "due more so to the activity of UA than of OA or BA"}]}
{"compound": "CO[C@H]1[C@H](O)[C@H](O[C@H]2CC[C@@]3(C)[C@H](CC[C@@H]4[C@@H]3CC[C@]3(C)[C@@H](C5=CC(=O)OC5)CC[C@]43O)C2)O[C@@H](C)[C@@H]1O", "note": "[neriifolin]", "values": [{"measurement": "neuroprotection of non-OGD brain slices", "setting": "[5]", "value": "modest levels of neuroprotection"}]}
{"compound": "C=C(C)[C@@H]1CC[C@]2(C(=O)O)CC[C@]3(C)[C@H](CC[C@@H]4[C@@]5(C)CC[C@H](O)C(C)(C)[C@@H]5CC[C@]43C)[C@@H]12", "note": "[Betulinic acid, betulinic acid]", "values": [{"measurement": "toxicity in co-cultures", "setting": "[4]", "value": "toxicity at higher concentrations"}]}
